According to the supplement of paper PMC11061612:

Tests used:
Assay in all cases: Bliss excess, mean over the matrix (fraction); higher = more synergy
[1] = test system: BFTC-905 (Bladder Carcinoma)
Procedure, shortened: (§1)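 Bliss excess equals the observed combination effect minus the expected value EA + EB − EA·EB, where EA and EB are the effects of each agent alone. Combination Emax is the second-highest inhibition within the matrix. Inhibition was scaled from CellTiter-Glo 2.0 luminescence, with 0 set by vehicle wells and 1 by blank wells, after 72 hours of two-drug dosing of cells plated in 1536-well plates.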

[2] = test system: BL-41 (Burkitt's Lymphoma)
Procedure, shortened: as §1

[3] = test system: CAMA-1 (Breast Carcinoma)
Procedure, shortened: as §1

[4] = test system: CHP-212 (Neuroblastoma)
Procedure, shortened: as §1

[5] = test system: ES1 (Ewing's Sarcoma)
Procedure, shortened: as §1

[6] = test system: ES8 (Ewing's Sarcoma)
Procedure, shortened: as §1

[7] = test system: GR-ST (B-Lymphoblastic Leukemia)
Procedure, shortened: as §1

[8] = test system: HL-60 (Acute Myeloid Leukemia)
Procedure, shortened: as §1

[9] = test system: KARPAS-45 (T-Lymphoblastic Leukemia)
Procedure, shortened: as §1

[10] = test system: KM12 (Colorectal Carcinoma)
Procedure, shortened: as §1

[11] = test system: MEL-JUSO (Melanoma)
Procedure, shortened: as §1

[12] = test system: MKN28 (Gastric Carcinoma)
Procedure, shortened: as §1

[13] = test system: MOLT-16 (T-Lymphoblastic Leukemia)
Procedure, shortened: as §1

[14] = test system: MS751 (Cervical Carcinoma)
Procedure, shortened: as §1

[15] = test system: NCI-H2818 (Mesothelioma)
Procedure, shortened: as §1

[16] = test system: NCI-H847 (Small Cell Lung Carcinoma)
Procedure, shortened: as §1

[17] = test system: SU-DHL-8 (B-Cell Non-Hodgkin's Lymphoma)
Procedure, shortened: as §1

[18] = test system: SW1417 (Colorectal Carcinoma)
Procedure, shortened: as §1

[19] = test system: WIL2-NS (Non-Cancerous)
Procedure, shortened: as §1

[20] = test system: WM-115 (Melanoma)
Procedure, shortened: as §1

| SMILES | Bliss excess [1] | Bliss excess [2] | Bliss excess [3] | Bliss excess [4] | Bliss excess [5] | Bliss excess [6] | Bliss excess [7] | Bliss excess [8] | Bliss excess [9] | Bliss excess [10] | Bliss excess [11] | Bliss excess [12] | Bliss excess [13] | Bliss excess [14] | Bliss excess [15] | Bliss excess [16] | Bliss excess [17] | Bliss excess [18] | Bliss excess [19] | Bliss excess [20] |
| --- | --- | --- | --- | --- | --- | --- | --- | --- | --- | --- | --- | --- | --- | --- | --- | --- | --- | --- | --- | --- |
| CCN(CCO)CCCOc1ccc2c(Nc3cc(CC(=O)Nc4cccc(F)c4)[nH]n3)ncnc2c1 [AZD2811] + C=CCn1c(=O)c2cnc(Nc3ccc(N4CCN(C)CC4)cc3)nc2n1-c1cccc(C(C)(C)O)n1 [AZD1775] (first compound max 1 µM, partner max 1 µM) | 0.0468 | 0.0862 | -0.0328 | -0.0625 | 0.16 | -0.0218 | -0.0338 | -0.0445 | -0.0766 | -0.0092 | 0.0131 | -0.0954 | -0.0255 | 0.0461 | -0.0461 | -0.0091 | 0.0945 | -0.0654 | 0.0117 | -0.0562 |
| Cc1cc2ncnn2cc1Nc1ncc2c(n1)n(C1CCOCC1)c(=O)n2C [AZD7648] + C[C@@H]1COCCN1C2=NC(=NC(=C2)C3(CC3)[S@](=N)(=O)C)C4=C5C=CNC5=NC=C4 [AZD6738] (first compound max 10 µM, 7x7, partner max 10 µM) | 0.0081 | -0.0052 | -0.0631 | -0.0035 | -0.0001 | 0.0071 | -0.116 | -0.0079 | 0.0129 | 0.0057 | 0.0289 | -0.0081 | -0.0368 | 0.0606 | 0.0738 | 0.0519 | -0.0136 | 0.0175 | 0.0015 | 0.0145 |
| CCc1c2c(nc3ccc(O)cc13)-c1cc3c(c(=O)n1C2)COC(=O)[C@]3(O)CC [SN-38] + O=C(c1cc(Cc2n[nH]c(=O)c3ccccc23)ccc1F)N1CCN(C(=O)C2CC2)CC1 [Olaparib] (first compound max 0.3 µM, 7x7, partner max 10 µM) | 0.0451 | 0.0462 | 0.0287 | – | 0.0779 | 0.0636 | -0.05 | – | – | -0.0102 | – | 0.0385 | – | 0.053 | 0.0548 | 0.0304 | – | 0.0174 | 0.0736 | 0.0847 |
| Cc1c2c(nn1C)CSCc1cc(n(C)n1)CSc1cc(c3ccccc3c1)OCCCc1c(C(=O)O)n(C)c3c-2c(Cl)ccc13 [AZD5991] + C[C@@H](Nc1cc(F)cc(F)c1)c1cc(C(=O)N(C)C)cc2c(=O)cc(N3CCOCC3)oc12 [AZD8186] (first compound max 1 µM, 7x7, partner max 3 µM) | -0.012 | -0.0096 | 0.0868 | -0.0203 | 0.013 | 0.042 | -0.0352 | – | 0.0206 | 0.0121 | 0.0086 | -0.0326 | -0.0154 | 0.0705 | -0.0343 | 0.0632 | -0.0961 | -0.0342 | -0.0749 | 0.018 |
| COc1nnc2ccc(N3CCC(c4ccc(OCCN5CCN(C)C(=O)[C@H]5C)cc4)CC3)nn12 [AZD5153] + CCN(CCO)CCCOc1ccc2c(Nc3cc(CC(=O)Nc4cccc(F)c4)[nH]n3)ncnc2c1 [AZD2811] (first compound max 1 µM, 7x7, partner max 1 µM) | -0.0452 | -0.0369 | -0.0311 | -0.027 | -0.0504 | -0.0119 | -0.0238 | -0.0076 | -0.0171 | -0.0112 | -0.0003 | -0.0244 | -0.0173 | 0.0349 | -0.0083 | – | 0.107 | -0.0301 | -0.0421 | -0.0814 |
| Cn1cnc2c(F)c(Nc3ccc(Br)cc3Cl)c(C(=O)NOCCO)cc21 [Selumetinib] + C=CCn1c(=O)c2cnc(Nc3ccc(N4CCN(C)CC4)cc3)nc2n1-c1cccc(C(C)(C)O)n1 [AZD1775] (first compound max 10 µM, partner max 1 µM) | -0.0654 | -0.0162 | -0.0309 | -0.0257 | -0.0255 | -0.185 | -0.0368 | -0.0732 | 0.0001 | -0.0672 | -0.0388 | -0.0192 | 0.0252 | 0.0171 | -0.0498 | – | -0.0846 | 0.0387 | 0.0363 | -0.0731 |
| COc1nnc2ccc(N3CCC(c4ccc(OCCN5CCN(C)C(=O)[C@H]5C)cc4)CC3)nn12 [AZD5153] + Cn1cnc2c(F)c(Nc3ccc(Br)cc3Cl)c(C(=O)NOCCO)cc21 [Selumetinib] (first compound max 1 µM, 7x7, partner max 10 µM) | 0.0113 | -0.0526 | 0.0022 | -0.0285 | -0.0511 | 0.0303 | -0.0578 | 0.0707 | 0.0362 | -0.0166 | 0.0889 | -0.0169 | -0.0353 | 0.0385 | -0.0031 | – | 0.0473 | 0.0496 | 0.0265 | 0.15 |
| COc1nnc2ccc(N3CCC(c4ccc(OCCN5CCN(C)C(=O)[C@H]5C)cc4)CC3)nn12 [AZD5153] + C[C@@H]1COCCN1C2=NC(=NC(=C2)C3(CC3)[S@](=N)(=O)C)C4=C5C=CNC5=NC=C4 [AZD6738] (first compound max 1 µM, 7x7, partner max 10 µM) | -0.05 | -0.0562 | -0.0091 | -0.0197 | -0.015 | -0.0096 | -0.0956 | -0.0003 | -0.0191 | 0.0526 | 0.0624 | -0.0072 | -0.0105 | 0.0833 | -0.0383 | – | 0.0042 | 0.0052 | -0.0766 | -0.0276 |
| NC1(C(=O)N[C@@H](CCO)c2ccc(Cl)cc2)CCN(c2ncnc3[nH]ccc23)CC1 [Capivasertib] + CC(=O)c1c(C)c2cnc(Nc3ccc(N4CCNCC4)cn3)nc2n(C2CCCC2)c1=O [Palbociclib] (first compound max 10 µM, 7x7, partner max 10 µM) | 0.0048 | -0.0275 | 0.052 | 0.0311 | 0.0697 | 0.0848 | -0.0067 | -0.0406 | 0.0327 | 0.0176 | -0.0137 | -0.0459 | -0.0011 | -0.0222 | -0.0025 | – | 0.0646 | 0.0067 | -0.0049 | -0.0469 |
| C[C@@H](c1ccc2nccn2c1)n1nnc2ncc(-c3cnn(C)c3)nc21 [Savolitinib] + Cc1c2c(nn1C)CSCc1cc(n(C)n1)CSc1cc(c3ccccc3c1)OCCCc1c(C(=O)O)n(C)c3c-2c(Cl)ccc13 [AZD5991] (first compound max 1 µM, 7x7, partner max 1 µM) | -0.0523 | -0.0318 | -0.0136 | -0.0437 | -0.0152 | 0.0495 | -0.037 | -0.0266 | -0.0264 | -0.0256 | -0.0269 | -0.045 | -0.0289 | -0.0701 | -0.0343 | – | -0.0425 | -0.0228 | -0.0262 | -0.037 |
| NC1(C(=O)N[C@@H](CCO)c2ccc(Cl)cc2)CCN(c2ncnc3[nH]ccc23)CC1 [Capivasertib] + COc1nnc2ccc(N3CCC(c4ccc(OCCN5CCN(C)C(=O)[C@H]5C)cc4)CC3)nn12 [AZD5153] (first compound max 10 µM, 7x7, partner max 1 µM) | -0.0346 | 0.036 | 0.106 | 0.0469 | 0.035 | 0.0894 | -0.0565 | 0.0346 | 0.0133 | 0.0143 | -0.0049 | -0.0075 | 0.0458 | -0.0065 | 0.0025 | – | 0.0407 | -0.0135 | -0.0933 | 0.0031 |
| CC(=O)c1c(C)c2cnc(Nc3ccc(N4CCNCC4)cn3)nc2n(C2CCCC2)c1=O [Palbociclib] + Cc1c2c(nn1C)CSCc1cc(n(C)n1)CSc1cc(c3ccccc3c1)OCCCc1c(C(=O)O)n(C)c3c-2c(Cl)ccc13 [AZD5991] (first compound max 10 µM, 7x7, partner max 1 µM) | -0.0167 | -0.0691 | -0.0525 | 0.0199 | -0.0169 | 0.0838 | 0.0096 | -0.0214 | -0.0071 | -0.0194 | -0.103 | -0.0385 | -0.0427 | -0.0294 | -0.0386 | – | -0.22 | -0.0089 | -0.0608 | -0.0282 |
| COc1nnc2ccc(N3CCC(c4ccc(OCCN5CCN(C)C(=O)[C@H]5C)cc4)CC3)nn12 [AZD5153] + C=CCn1c(=O)c2cnc(Nc3ccc(N4CCN(C)CC4)cc3)nc2n1-c1cccc(C(C)(C)O)n1 [AZD1775] (first compound max 1 µM, partner max 1 µM) | -0.0559 | -0.0454 | -0.0121 | -0.0294 | -0.0845 | -0.0563 | -0.0897 | -0.0519 | -0.0088 | -0.0456 | 0.0131 | -0.0617 | -0.0021 | 0.064 | 0.0033 | – | 0.0014 | -0.0254 | -0.105 | -0.11 |
| CC(=O)c1c(C)c2cnc(Nc3ccc(N4CCNCC4)cn3)nc2n(C2CCCC2)c1=O [Palbociclib] + Cn1cnc2c(F)c(Nc3ccc(Br)cc3Cl)c(C(=O)NOCCO)cc21 [Selumetinib] (first compound max 10 µM, 7x7, partner max 10 µM) | 0.0595 | -0.0131 | -0.027 | -0.0313 | -0.0366 | 0.041 | 0.0333 | 0.0109 | 0.0636 | 0.0039 | 0.0028 | 0.0275 | -0.0133 | -0.0445 | -0.0013 | – | 0.0147 | -0.0094 | -0.0133 | -0.0126 |
| CN(CCO)CC[C@H](CSc1ccccc1)Nc1ccc(S(=O)(=O)NC(=O)c2ccc(N3CCC([C@@H](O)c4ccccc4-c4ccc(Cl)cc4)CC3)cc2)cc1S(=O)(=O)C(F)(F)F [AZD4320] + C[C@@H](Nc1cc(F)cc(F)c1)c1cc(C(=O)N(C)C)cc2c(=O)cc(N3CCOCC3)oc12 [AZD8186] (first compound max 1 µM, 7x7, partner max 3 µM) | -0.0221 | 0.0388 | 0.0218 | -0.072 | 0.0591 | 0.0142 | -0.054 | – | 0.0842 | 0.0562 | 0.033 | 0.0229 | -0.0157 | 0.0982 | -0.0232 | 0.0851 | -0.0714 | 0.0346 | -0.0709 | 0.0755 |
